The text below walks through data of patent publication US9102669B2, “Substituted piperidinyl-pyridazinyl derivatives useful as SCD 1 inhibitors” (Janssen Pharmaceutica NV, priority 2011, dated 2015).

Values joined by “and” are separate entries in the source; they are usually repeats but may differ in a detail not shown here. Identical values can stand only once. Like-named read-outs stand apart in the source and are kept apart here.

A short description of assay [1]: 10-day diet-induced obese C57bl/6 mice study, body weight change. Type of assay: in vivo, mouse. Also noted: unit not given here. The following applies: DIO C57BL/6J mice, oral 30 mg/kg once a day, after 10 days of treatment. As to the method:
Male DIO C57BL/6J mice from Taconic were maintained on high fat diet D12492 containing 60% kCal of mostly saturated fats (Research Diets Inc.) for 4 week from 6-week old. Test compounds were prepared in 0.5% hydroxypropyl methyl cellulose for oral dosing at 30 mg/kg once a day. After 10-days of treatment, body weight change was recorded.
Representative compounds of the present invention were tested according to the procedure as described above, with results as listed in Table 7, below. In the results presented below, * indicates a calculated p value <0.05 vs. vehicle-treated group.

A short description of assay [2]: 4 week Zucker fa/fa rat study, body weight. Type of assay: in vivo. The following applies: Zucker fa/fa rats. As to the method: Male Zucker fa/fa rats were housed one rat per cage in a temperature-controlled room with 12-hour light/dark cycle. The rats were fed on regular rodent diet (Purina 5008) and allowed ad libitum access to water. The experiment was initiated at an age of 8-9 week, and at body weight of about 350 g. Test compound was prepared in 0.5% HPMC for dosing q.d at 1 mg/kg, 3 mg/kg and 10 mg/kg, as noted in the table of results below. Body weight, food intake and fed blood glucose were monitored weekly. On day 26, all rats were given with the last dose 1 hr prior to the necropsy.

Assay [3] concerns the target T1, SCD1 (Homo sapiens (Human), UniProt O00767). Put plainly: SCD1 14C-palmitate assay in A431 cells. The following applies: read-out: A431 cells 14C-PA IC50. Type of assay: cell-based. On the procedure: Human epithelial carcinoma A431 cells were seeded at 400,000 cells per well in 48-well tissue culture plate and treated with 2 cycles of fasting in low glucose medium (DMEM, Cellgro#10-014-CV, 1 g/L glucose, 2% Charcoal Filtered FBS) for 24 hours; and re-feeding with high glucose medium for 24 hours (DMEM, Cellgro#10-013-CM, 4.5 g/L glucose, 10% Charcoal Filtered FBS and 0.05 mg/mL Lilly Humulin R, Cat.#, HI-210). Prior to running the assay, the cells were washed twice with high glucose medium (400 μL), followed by addition of 250 μL assay buffer (DMEM, 4.5 g/L glucose, 0.05 mg/mL Human Insulin, 0.1% Fatty Acid Free BSA) to each well. Then, 100 μL of assay buffer containing 20 μM Palmitic Acid, 0.05 μCi ^14C Palmitic Acid (Perkin Elmer, NEC075H) and test compound (at selected concentration) was added to each well. The cells were then Incubated at 37° C. and 5% CO2 tissue culture incubator for 4 hours, followed by extensive washes with pre-chilled PBS. The cell plates were then frozen at −20° C. overnight. After thawing out the plates, 100 μL of 1N KOH was added to each well and the plates were incubated at 37° C. for 30 mins. Cell lysates were transferred to 1 mL Eppendorf tubes and incubated at 95° C. for 1 hour, followed by addition of 10 μL formic acid and 220 μL acetonitrile. The tubes were then centrifuged at 12,000 rpm and the supernatant dried under N2 for 2-3 hours. Dried extract was re-suspended in 60 μL hexane and loaded onto TLC plates (pre-coated with 10% AgNO3 in acetonitrile). The TLC plates were placed into glass running chamber containing 200 mL running solution (100 mL running solution: 92.5 mL chloroform, 6 mL methanol, 750 μL acetic acid, 750 μL dH2O). After running, the TLC plates were air dried and scanned on Bioscan AR-2000 for quantification of ^14C-palmitioleate and ^14C-palmitate peaks. Area under the curve of the peaks were used to calculate product/substrate ratio, an index of SCD1 activity.

Assay [4] addresses T1, SCD1. Briefly: SCD1 13C-palmitic acid assay in A431 cells. Type of assay: cell-based. The settings on record: read-out: A431 cells 13C-PA IC50. The gist of the method:
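A431 cells with 0.05 mg/mL human insulin in 0.1% fatty-acid-free BSA assay medium; 4 h incubation at 37 °C before KOH saponification with D4-palmitate internal standard.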

Assay [5] addresses SCD1 (Rattus norvegicus (Rat), UniProt P07308). Put plainly: SCD1 enzymatic assay in rat liver microsomes (RLM). Type of assay: biochemical. The following applies: for inhibition at 1 µM: read-out: % Inh.@ 1 μM. In short, it runs like this: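 Microsomes from livers of Sprague Dawley rats after fast/fat-free re-feeding cycles (10 μg per reaction) were incubated 2 h at room temperature with 20 μM stearoyl-CoA plus ^3H-stearoyl-CoA (2 μCi/mL), ATP, CoA, NADH and glutathione in 0.1 M K-phosphate, with compound. Reactions were acid-stopped and charcoal-treated; radioactivity was counted and fitted to a sigmoidal dose-response curve.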
(Microsomes from liver hold many membrane-bound enzymes, among them those of drug oxidation.)

Setting [6] is: 1 μM test compound, rat liver microsomes.

SCD1 (Rattus norvegicus (Rat), UniProt P07308), sequence (P07308 whole entry): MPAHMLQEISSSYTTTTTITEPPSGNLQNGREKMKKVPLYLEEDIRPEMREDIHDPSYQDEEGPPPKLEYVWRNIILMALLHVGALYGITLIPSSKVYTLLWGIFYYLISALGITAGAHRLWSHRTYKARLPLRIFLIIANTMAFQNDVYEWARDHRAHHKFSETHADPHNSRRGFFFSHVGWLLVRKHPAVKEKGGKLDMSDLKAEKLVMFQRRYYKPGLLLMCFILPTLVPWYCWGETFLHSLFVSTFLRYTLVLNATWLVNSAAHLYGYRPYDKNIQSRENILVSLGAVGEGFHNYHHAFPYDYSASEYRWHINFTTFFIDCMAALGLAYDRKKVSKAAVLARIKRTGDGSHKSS
T1 sequence (O00767 whole entry): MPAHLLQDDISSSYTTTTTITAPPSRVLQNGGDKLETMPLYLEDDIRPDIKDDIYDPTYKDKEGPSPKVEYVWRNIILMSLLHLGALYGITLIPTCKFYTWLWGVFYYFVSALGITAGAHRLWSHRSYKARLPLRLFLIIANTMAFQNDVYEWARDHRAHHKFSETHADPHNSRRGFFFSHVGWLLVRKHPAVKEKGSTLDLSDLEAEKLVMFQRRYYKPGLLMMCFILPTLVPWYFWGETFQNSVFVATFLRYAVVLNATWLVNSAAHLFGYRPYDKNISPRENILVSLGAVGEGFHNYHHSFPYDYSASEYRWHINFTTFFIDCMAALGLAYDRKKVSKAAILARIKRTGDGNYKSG

With `Cn1cc(-c2ccc(N3CCC(N4CCc5ccc(F)cc54)CC3)nn2)cn1` [Compound #11, 6-fluoro-1-(1-(6-(1-methyl-1H-pyrazol-4-yl)pyridazin-3-yl)piperidin-4-yl)indoline], the body weight change in assay [1] is −2.1 ± 0.3 *. Besides, in assay [2] (1 mg/kg q.d.), the “Body Weight Day 1” value is 373 ± 7 grams, the “Body Weight Day 8” value was 404 ± 13 grams, the “Body Weight Day 15” value was determined as 442 ± 12 grams and the “Body Weight Day 22” value is 482 ± 10 grams. Also, the “Body Weight Day 26” value in assay [2] (1 mg/kg q.d.) is 496 ± 10 grams. In addition, in assay [2] (3 mg/kg q.d.), the “Body Weight Day 1” value was 372 ± 6 grams, the “Body Weight Day 8” value is on record as 417 ± 7 grams, the “Body Weight Day 15” value was 452 ± 6 grams and the “Body Weight Day 22” value is recorded as 484 ± 6 grams. In addition, in assay [2] (3 mg/kg q.d.), the “Body Weight Day 26” value came to 498 ± 6 grams. For the same molecule, in assay [2] (10 mg/kg q.d.), the “Body Weight Day 1” value came out at 373 ± 5 grams, the “Body Weight Day 8” value is 402 ± 6 grams, the “Body Weight Day 15” value was determined as 430 ± 7 grams and the “Body Weight Day 22” value came to 445 ± 9 grams. For the same molecule, the “Body Weight Day 26” value in assay [2] (10 mg/kg q.d.) was 451 ± 9 grams.

As for `NNC(=O)c1ccc(N2CCC(c3noc4ccc(F)cc34)CC2)nn1` [Compound I1, 6-(4-(5-fluorobenzo[d]isoxazol-3-yl)piperidin-1-yl)pyridazine-3-carbohydrazide], the IC50 (usually the midpoint of a concentration-inhibition curve) at SCD1 [3] is 3.06 µM; at SCD1 [4], over 3000 nM; at SCD1 [5] (rat liver microsomes), 59 nM. For the same molecule, on SCD1 [5] (setting [6]), the inhibition at 1 µM was determined as 100%.

On to `OCCn1cc(-c2ccc(N3CCC(N4CCc5ccc(F)cc54)CC3)nn2)cn1` [Compound #49, 2-(4-(6-(4-(6-fluoroindolin-1-yl)piperidin-1-yl)pyridazin-3-yl)-1H-pyrazol-1-yl)ethanol], for which, in assay [1], the body weight change is reported as 0.5 ± 0.1 *. Further, the half-inhibitory concentration (IC50) on SCD1 [4] is 21 nM and 22 nM. Also, at SCD1 [5] (setting [6]), the “% Inh.@ 1 μM” value is 91% and the inhibition at 1 µM turned out to be 95%. For the same molecule, the IC50 against SCD1 [5] (rat liver microsomes) was 25 nM and 19 nM.

`Cn1cc(-c2ccc(N3CCC(n4ncc5ccc(F)cc54)CC3)nn2)cn1` [Compound #47, 6-fluoro-1-(1-(6-(1-methyl-1H-pyrazol-4-yl)pyridazin-3-yl)piperidin-4-yl)-1H-indazole]: the body weight change in assay [1] is recorded as −3.3 ± 0.5 *. Moreover, the IC50 on SCD1 [4] was 69 nM and 33 nM.

In the case of `OCc1cnn(-c2ccc(N3CCC(N4CCc5ccc(F)cc54)CC3)nn2)c1` [Compound #22], the body weight change in assay [1] is recorded as 1.2 ± 0.3 *. The 50% inhibitory concentration (IC50) at SCD1 [4] was 7 nM and 5 nM; at SCD1 [5] (rat liver microsomes), 22 nM and 11 nM. For the same molecule, the inhibition at 1 µM on SCD1 [5] was 98%.

On to `OCc1ccc(-c2ccc(N3CCC(N4CCc5ccc(F)cc54)CC3)nn2)cn1` [Compound #39], for which the body weight change in assay [1] is given as −2.2 ± 0.5 *. Further, the IC50 on SCD1 [4] was 0.5 nM; against SCD1 [5] (rat liver microsomes), 9 nM. Besides, on SCD1 [5] (setting [6]), the inhibition at 1 µM was 99%.
